Consider 32 molecules from paper PMC12040169 (PLOS Biology, 2025).

One data set is described as follows: in vitro. As to conditions: human, hela cells, % viability.
Consider `COCCCOc1cncc(N2CCCC2)n1` [CBK115759], for which the viability at 28.5 h, 10 µM came to 92.4%.

In the case of `O=C(O)C1CC(C(=O)O)C(C(=O)O)CC1C(=O)O` (centres unmarked) [CBK261332], the viability at 28.5 h, 10 µM worked out at 89.4%.

Regarding `O=C1NC2(CCSC2)C(=O)N1Cc1noc(-c2cccs2)n1` (centres unmarked) [CBK306225], the viability at 28.5 h, 10 µM came out at 90.6%.

Consider `C=CCN1CCc2cc(-c3cncn3CC(=O)NC(C)(C)C)ccc21` [CBK281923], for which the viability at 28.5 h, 10 µM came to 86.7%.

On to `OCCOc1ccc(Cl)c2cccnc12` [CBK000620], for which the viability at 28.5 h, 10 µM worked out at 78.1%.

As to `N#Cc1ccc(N2CCN(CCCNC(=O)Nc3ccccc3)CC2)cc1` [CBK267861], the viability at 28.5 h, 10 µM came out at 95%.

Take `COC(=O)Cn1c(-c2ccc(F)cc2)cc2cccnc21` [CBK282763]: the viability at 28.5 h, 10 µM came to 91.5%.

As to `CCOC(=O)Cn1nc(CC)n2c(cc3sccc32)c1=O` [CBK284073], the viability at 28.5 h, 10 µM was 80.3%.

As for `Cn1cc(C2CNCCN2C(=O)c2coc3ccccc23)cn1` (centres unmarked) [CBK304270C], the viability at 28.5 h, 10 µM turned out to be 87%.

Regarding `Cc1ccc(C(=O)O)cc1NC(=S)NC(=O)c1ccc(-c2ccccc2)cc1` [CBK264997], the viability at 28.5 h, 10 µM amounted to 92.7%.

Take `Oc1cccc(-c2cc(CC3(NCc4cnc5ccccc5c4)COC3)no2)c1` [CBK289662]: the viability at 28.5 h, 10 µM amounted to 107%.

Regarding `CCOc1cccc2cc(C(=O)N3CCN(Cc4ccccc4)CC3)c(=O)oc12` [CBK270259C], the viability at 28.5 h, 10 µM came out at 74.3%.

For the molecule `Cc1ccc2nc(SCC(=O)Nc3ccccc3Br)c(C#N)cc2c1` [CBK068169], the viability at 28.5 h, 10 µM was determined as 94.4%.

As for `NC(=O)Cn1c(=O)n(CCc2ccccc2)c(=O)c2c3c(sc21)CCCC3` [CBK267665], the viability at 28.5 h, 10 µM turned out to be 103%.

For `COc1ccc(-c2cc(C(=O)Nc3ccccn3)cnc2-c2ccccc2)cn1` [CBK037519], the viability at 28.5 h, 10 µM was 89.3%.

Take `CC(=O)N1CCN(c2ccc(OCCO)cc2)CC1` [CBK001978]: the viability at 28.5 h, 10 µM is 90.8%.

As to `CCn1c2ccccc2n2c(SCC(=O)O)nnc12` [CBK266869], the viability at 28.5 h, 10 µM was 91.4%.

Turning to `O=C(c1ccc(F)cc1)c1cn(CCO)c2c(Cl)nccc12` [CBK285129], the viability at 28.5 h, 10 µM is 106%.

With `NC(=O)CN1C(=O)CO[C@H]2CN(Cc3cnc4ccccc4c3)C[C@H]21` [CBK289242], the viability at 28.5 h, 10 µM worked out at 106%.

`CN(C)CCNc1nc(-c2ccncc2)cnc1N` [CBK063580]: the viability at 28.5 h, 10 µM turned out to be 102%.

For the molecule `Nc1cccc(-c2nccnc2NCc2cccs2)c1` [CBK037537], the viability at 28.5 h, 10 µM was determined as 104%.

Turning to `CSc1nc(NC(=O)C(C)c2ccccc2)cc(N2CCNCC2)n1` (centres unmarked) [CBK026742T], the viability at 28.5 h, 10 µM amounted to 91.2%.

Turning to `CC(C)C(=O)Nc1nc2c([nH]c(=O)n2[C@H]2C[C@@H](O)[C@@H](CO)O2)c(=O)[nH]1` [CBK201202], the viability at 28.5 h, 10 µM was 98.4%.

As for `CCCCC1CCC(c2noc(-c3ccc(F)cc3)n2)CC1` (centres unmarked) [CBK027363], the viability at 28.5 h, 10 µM is 90.3%.

For the molecule `Fc1cc2c3c(c1)c1c(n3CCC2)CCNCC1` [CBK018406C], the viability at 28.5 h, 10 µM worked out at 105%.

For `O=C1C2C(c3ccccc3)NC(c3ccccc3)C1C(c1ccccc1)NC2c1ccccc1` (centres unmarked) [CBK260981], the viability at 28.5 h, 10 µM is 93%.

Take `COc1ccc2sc(Br)c(C(=O)O)c2c1` [CBK019180]: the viability at 28.5 h, 10 µM is 103%.

Take `Cc1cccc(C(=O)N2CCN(S(=O)(=O)c3sc(C(=O)O)c(C)c3C(=O)O)CC2)c1` [CBK297124]: the viability at 28.5 h, 10 µM worked out at 91.4%.

Turning to `O=C(O)c1ccc(-c2ccc(/C=C/c3nc(O)c([N+](=O)[O-])c(=O)[nH]3)o2)cc1Cl` [CBK267354], the viability at 28.5 h, 10 µM turned out to be 88.1%.

In the case of `Cc1cc(SCC(C)C)n2ncnc2n1` [CBK261808], the viability at 28.5 h, 10 µM is 112%.

Regarding `O=C(O)c1ccc2c(c1)C(=O)N(c1ccc(-c3ccnc(-c4ccc(N5C(=O)c6ccc(C(=O)O)cc6C5=O)cc4)n3)cc1)C2=O` [CBK261192], the viability at 28.5 h, 10 µM worked out at 104%.

Still in this data set, the particulars now being: human, hela cells, % viability, bulk resorufin, single well.
Regarding `COc1ccc2c(c1)COC1(CCN(C(=O)Nc3cccs3)CC1)O2` [CBK060803], the viability at 28.5 h, 10 µM came out at 105%.
